Assay results published in paper PMC4977651, “Molecular features of biguanides required for targeting of mitochondrial respiratory complex I and activation of AMP-kinase” (BMC Biology, 2016).
Where “and” joins values, the source holds several entries; their conditions need not be identical. Equal values may be shown once.

Columns and labels:
[1] = test system: bovine mitochondrial membranes (complexes II-III-IV); test: Succinate:O2 oxidoreduction (complexes II-III-IV, complex II assay) by bovine mitochondrial membranes; type: biochemical, Bos taurus; conditions: biguanide concentrations set to the IC50 values for NADH:O2 on bovine membranes; control = 100.00; n = 3
Method: Assays were performed at 32 °C in a SpectraMax 96-well plate reader. NADH:decylubiquinone oxidoreduction by complex I at 0.5 μg mL^−1 was measured in 20 mM Tris-HCl (pH 7.2), 0.15 % soy bean asolectin (Avanti Polar Lipids), and 0.15 % 3-((3-cholamidopropyl)dimethylammonium)-1-propanesulfonate (CHAPS, Merck Chemicals Ltd), with 200 μM decylubiquinone and 200 μM NADH, and monitored using ε340–380(NADH) = 4.81 mM^−1 cm^−1 [23]. Catalysis was initiated by addition of NADH and maximal rates determined by linear regression. NADH:O2 oxidoreduction by membranes was measured similarly but using 5 μg mL^−1 membranes in 10 mM Tris-HCl (pH 7.4) and 250 mM sucrose using 200 μM NADH and supplemented with 0.15 mM horse heart cytochrome c (Sigma-Aldrich Ltd.). Succinate:O2 oxidoreduction was measured using 40 μg mL^−1 membranes in 5 mM succinate in 10 mM Tris-HCl (pH 7.4) as described previously. Control experiments included NaCl (to match the ionic strength) or DMSO, as appropriate.

[2] = Octanol/PBS partition coefficient, shake-flask method; type: physicochemical; conditions: 32 °C, pH 7.4, n = 3
Method: Octanol/PBS partition coefficients were measured by the shake-flask method at 32 °C, pH 7.4.

permeabilized 143B cells = test: ADP-stimulated rotenone-sensitive OCR in permeabilized 143B cells; type: cell-based, human; design: rotenone sensitive OCR after ADP stimulation, individual replicates / rotenone sensitive OCR after ADP stimulation, average: unit not given here; conditions: for rotenone sensitive OCR after ADP stimulation, % of control, average / rotenone sensitive OCR after ADP stimulation, average / rotenone sensitive OCR after ADP stimulation, % of control, individual replicates / rotenone sensitive OCR after ADP stimulation, individual replicates: 143B permeabilised cells; for rotenone sensitive OCR after ADP stimulation, % of control, average / rotenone sensitive OCR after ADP stimulation, average: average of replicates; for rotenone sensitive OCR after ADP stimulation, % of control, individual replicates / rotenone sensitive OCR after ADP stimulation, individual replicates: replicate 1-11
Method: For permeabilized cell experiments, cells were seeded into XF96 plates at 0.9–1.1 × 10^4 per well and incubated for 48 h at 37 °C in 5 % CO2. Then, the growth medium was exchanged for assay buffer containing 3 nM plasma membrane permeabilizer ‘PMP’ (Seahorse Biosciences Inc.), 10 mM glutamate, 10 mM malate, 220 mM mannitol, 70 mM sucrose, 10 mM KH2PO4, 5 mM MgCl2, 1 mM EGTA, 0.2 % fatty acid-free bovine serum albumin (BSA), and 2 mM HEPES (pH 7.4 at 37 °C). […] The biguanides were allowed to accumulate for 30 min, then respiration was […] by the addition of 4 mM ADP. Rotenone was added (2 μM) at the end of the experiment.
Rotenone-sensitive OCRs were calculated by subtracting the rotenone-insensitive rates (determined at the end of the experiment). OCRs were normalized by dividing by the OCR recorded immediately prior to the addition of biguanide. For rate of uptake calculations, the OCRs at time points after biguanide addition were divided by the OCRs at the same time points in control experiments. Data from wells with failed port injections were excluded from the analyses. The respiratory control ratio (RCR) values (state III versus state IV respiration) were ~11 and ~6 for permeabilized MDBK and 143B cells, respectively.

mouse liver mitochondria = test: ADP-stimulated rotenone-sensitive OCR in isolated mouse liver mitochondria; type: biochemical; design: rotenone sensitive OCR after ADP stimulation, individual replicates / rotenone sensitive OCR after ADP stimulation, average: unit not given here; conditions: for rotenone sensitive OCR after ADP stimulation, % of control, average / rotenone sensitive OCR after ADP stimulation, average: average of replicates; for rotenone sensitive OCR after ADP stimulation, % of control, individual replicates / rotenone sensitive OCR after ADP stimulation, individual replicates: replicate 1-5
Method: Complex I and mitochondrial membranes were prepared from Bos taurus (bovine) heart. Intact mitochondria were isolated from rat liver and mouse heart and liver. Membranes were prepared from mouse heart mitochondria by 5 s bursts of sonication at 4 °C and collected by centrifugation (75,000 × g, 1 h).
Isolated mitochondria were monitored using a Seahorse XF96 extracellular flux analyzer at 32 °C. Mouse heart mitochondria, and mouse and rat liver mitochondria were plated into XF96 plates at 4 and 16–20 μg per well, respectively, in 220 mM mannitol, 70 mM sucrose, 10 mM KH2PO4, 5 mM MgCl2, 1 mM EGTA, 0.2 % fatty acid-free BSA, and 2 mM HEPES (pH 7.4 at 37 °C) with 10 mM glutamate and 10 mM malate and adhered by centrifugation (2000 × g, 20 min, 4 °C). The medium was supplemented with a further 5 mM glutamate and 5 mM malate and the mitochondria incubated for 15 min. Then two baseline readings were taken before the biguanides were added at IC50/5. Biguanides were allowed to accumulate for 15–20 min before respiration was […] by the addition of 4 mM ADP. Rotenone (2 μM) was added at the end of the experiment. Data from wells with failed port injections were excluded from the analyses. The RCR values (state III versus state IV respiration) were 3.4, 4.8, and 4.6 for mouse heart, rat liver, and mouse liver, respectively.

AMPK-α (phospho-Thr172) = test: AMPK activation, western blot of phospho-AMPK-α in MDBK cells; type: cell-based, Bos taurus; conditions: for p-alpha, average normalised to control: Averages of experiments 1-3, 18 hours; for p-alpha: band intensity
Method: MDBK cells were seeded at 1 × 10^6 cells per 6 cm dish in DMEM containing 10 % FBS. […] After 18 h cells were harvested by a rapid lysis procedure: cells were rinsed with PBS, then lysed using ice-cold buffer containing 50 mM HEPES, 1 mM EDTA, 10 % glycerol, 50 mM NaF, 5 mM sodium pyrophosphate, 1 % Triton-X100, 1 mM dithiothreitol (DTT), and a protease inhibitor cocktail (Roche). The cell lysate was centrifuged at 14,000 × g for 20 min at 4 °C and the protein concentration of the supernatant determined by bicinchoninic acid assay. The lysate was analyzed using Novex 3–12 % bis-Tris gels run in 3-(N-morpholino)propanesulfonic acid (MOPS) buffer (20 μg of protein per lane) followed by transfer to low fluorescence polyvinylidene fluoride membranes by wet transfer. Primary rabbit antibodies for AMPK-β (57C12), AMPK-α (phospho-Thr172) (40H9), and acetyl-coA carboxylase (phospho-Ser79) (Cell Signaling Technology) were incubated overnight with the membrane (1:1000 dilution) in Odyssey blocking buffer at 4 °C. A fluorescent secondary antibody was used (IRDYE800CW from LI-COR Biosciences, 1:20,000 dilution) with a LI-COR Odyssey imaging system.

| SMILES | Complex II assay (succinate:O2 oxidoreduction), average [1] | P (partition coefficient) [2] | logP [2] | rotenone sensitive OCR after ADP stimulation, % of control, average (permeabilized 143B cells) | rotenone sensitive OCR after ADP stimulation, % of control, individual replicates (permeabilized 143B cells) | rotenone sensitive OCR after ADP stimulation, individual replicates (permeabilized 143B cells) | rotenone sensitive OCR after ADP stimulation, % of control, average (mouse liver mitochondria) | rotenone sensitive OCR after ADP stimulation, average (mouse liver mitochondria) | rotenone sensitive OCR after ADP stimulation, % of control, individual replicates (mouse liver mitochondria) | rotenone sensitive OCR after ADP stimulation, individual replicates (mouse liver mitochondria) | p-alpha, average normalised to control (AMPK-α (phospho-Thr172)) | p-alpha / AMPK beta (AMPK-α (phospho-Thr172); Experiment 1, 18 hours) | p-alpha / AMPK beta normalised to control (AMPK-α (phospho-Thr172); Experiment 1, 18 hours) | p-alpha (AMPK-α (phospho-Thr172); Experiment 1, 18 hours) | p-alpha / AMPK beta (AMPK-α (phospho-Thr172); Experiment 2, 18 hours) | p-alpha / AMPK beta normalised to control (AMPK-α (phospho-Thr172); Experiment 2, 18 hours) | p-alpha (AMPK-α (phospho-Thr172); Experiment 2, 18 hours) | p-alpha / AMPK beta (AMPK-α (phospho-Thr172); Experiment 3, 18 hours) | p-alpha / AMPK beta normalised to control (AMPK-α (phospho-Thr172); Experiment 3, 18 hours) | p-alpha (AMPK-α (phospho-Thr172); Experiment 3, 18 hours) | further results |
| --- | --- | --- | --- | --- | --- | --- | --- | --- | --- | --- | --- | --- | --- | --- | --- | --- | --- | --- | --- | --- | --- |
| N=C(N)NC(N)=Nc1ccccc1 [compound 2, phenyl biguanide] | 92.05 | 0.236 | -0.627 | 76.10 % of control | 64.11 % of control and 81.27 % of control and 71.75 % of control and 89.78 % of control and 64.02 % of control and 84.74 % of control and 60.92 % of control and 78.85 % of control and 104.39 % of control and 61.15 % of control | 153.03 and 194.01 and 171.28 and 214.31 and 152.84 and 202.30 and 145.43 and 188.22 and 249.19 and 145.97 | 78.67 % of control | 27.30 | 80.64 % of control and 78.05 % of control and 77.34 % of control | 27.98 and 27.08 and 26.83 | 1.18 | 0.14 | 1.11 | 64.6 | 0.17 | 1.14 | 57.4 | 0.27 | 1.28 | 57.3 | rotenone sensitive OCR after ADP stimulation, average (permeabilized 143B cells): 181.66; inhibition of the OCR (in words) (permeabilized 143B cells; permeabilized 143B cells, biguanide concentration equal to IC50): only limited inhibition |
| NC(N)=NC(N)=NCc1ccccc1 [compound 3, 2-benzyl-1-(diaminomethylidene)guanidine] | 97.37 | 0.184 | -0.734 | – | 6.07 % of control and 2.51 % of control and 3.63 % of control and 7.99 % of control and 8.80 % of control and 18.64 % of control and 13.94 % of control and 7.14 % of control and 16.57 % of control and 2.18 % of control and 7.53 % of control | 14.50 and 5.99 and 8.67 and 19.08 and 21.01 and 44.51 and 33.29 and 17.05 and 39.56 and 5.21 and 17.98 | 32.07 % of control | 11.13 | 34.06 % of control and 31.32 % of control and 34.05 % of control and 28.86 % of control | 11.82 (2×) and 10.87 and 10.01 | 10.88 | 1.27 | 10.17 | 594 | 1.33 | 9.10 | 402 | 2.78 | 13.38 | 628 | – |
| CC(C)N=C(N)N=C(N)N [compound 4, 1-(diaminomethylidene)-2-(propan-2-yl)guanidine] | 101.59 | 0.061 | -1.21 | 4.94 % of control | -1.48 % of control and 3.88 % of control and 15.33 % of control and 9.59 % of control and 8.04 % of control and 7.71 % of control and 5.26 % of control and 0.97 % of control and -3.74 % of control and 3.83 % of control | -3.53 and 9.26 and 36.59 and 22.89 and 19.19 and 18.41 and 12.55 and 2.31 and -8.93 and 9.14 | 19.19 % of control | 6.66 | 21.16 % of control and 18.53 % of control and 17.88 % of control | 7.34 and 6.43 and 6.20 | 12.85 | 1.65 | 13.27 | 732 | 1.91 | 13.08 | 500 | 2.53 | 12.19 | 499 | rotenone sensitive OCR after ADP stimulation, average (permeabilized 143B cells): 11.79 |
